From US6939850B2, “Altered human interleukin-1β convertase (ICE), NEDD-2, and C. elegans ced-3 polypeptides and uses therefor” (Massachusetts Institute of Technology, priority 1992, dated 2005)

System: lumbar motoneurons
Experiment: Motoneuron death following limb bud removal
Format: in vivo, chick
Source text: Peptides. Two peptide inhibitors of ICE, Acetyl-Tyr-Val-Ala-Asp-aldehyde (Ac-YVAD-CHO) and Acetyl-Tyr-Val-Ala-Asp-chloromethylketone (Ac-YVAD-CMK) and two control peptide inhibitors, Acetyl-Leu-Leu-Arg-aldehyde (Ac-LLR-CHO; Leupeptin) and n-tosyl-Lys-chloromethyl-ketone (Tos-Lys-CMK) were synthesized by Bachem Biosciences (King of Prussia, Pa.) and shown by thin layer chromatography and HPLC to be greater than 98% pure. […] Methods for administration of peptides to examine effects on naturally occurring motoneuron cell death in vivo. Although cell death of lumbar motoneurons occurs between E6 and E12, the peak period of death (i.e., the greatest number of pyknotic cells) occurs on E8 (Oppenheim et al., J Comp. Neurol. 177:87-112 (1978)). For these experiments, embryos were given a single administration of an agent on E8 0 hr and sacrificed 15 hours later. […] Ac-YVAD-CMK and Tos-Lys-CMK were administered in a solution of DMSO/BSA, whereas Ac-YVAD-CHO and leupeptin (Sigma) were in BSA alone. The solutions (50-100 μl) were dropped onto the highly vascularized chorioallantoic membrane through a window in the shell. The control groups included both DMSO and BSA or vehicle alone. Embryos were killed and staged by the Hamburger-Hamilton series (Hamburger and Hamilton, J. Morph. 88:49-92 (1951)). The thoraco-lumbar spinal cord was dissected, fixed in Camoys or Bouins fixative, processed for paraffin histology, serially sectioned (10-12 μm) and stained with either thionin or hematoxylin and eosin. Pyknotic motoneurons were identified based on criteria previously described (Chu-Wang and Oppenheim, J. Comp. Neurol. 177:33-58 (1978); Clarke and Oppenheim In Methods in Cell Biology Series; Cell Death; eds: Schwartz and Osborne. Academic Press. New York, N.Y. In press.) and were counted in every 10th or 20th section through the entire lumbar enlargement. The total number of pyknotic cells were then estimated by multiplying these values by 10 or 20. All cell counts were performed by individuals blinded with regard to drug treatment of the embryos. Methods for limb bud removal experiments. A unilateral limb bud removal was performed on E2 as described previously (Oppenheim et al., J. Comp. Neurol. 177:87-112 (1978)). Because induced cell death following limb removal begins on E5 (before that there is no difference in the number of motoneurons between the operated or unoperated sides) embryos were given one treatment of Ac-YVAD-CHO (40 μg) or BSA (control) at E5-0 hr and another at E5-12 hours (total peptide administered was 80 μg). Animals were killed at E6-0 hr. Methods were the same as described above except the section thickness was 6-8 μm (see Method for Administration of Peptides, above). Methods for limb bud interdigital regions. Embryos were treated with 100 μg of peptide or vehicle in 50 μl on E6.0 and on E7.0 (total 200 μg) as described above (Chu-Wang and Oppenheim, J. Comp. Neurol. 177:33-58 (1978); Clarke and Oppenheim In Methods in Cell Biology Series; Cell Death; eds: Schwartz and Osborne. Academic Press. New York, N.Y. In press.) and killed at E7.5. The footpads were placed in Bouin's fixative and processed as described above (see Method of Limb Bud Removal, above). Pyknotic cells in all interdigital regions were counted in every 10th section (6-8 μm) of serial transverse sections through the entire footpad.

[1] = limb bud removal on E2, 40 μg at E5-0 hr and E5-12 hours, mean ±SD
[2] = unoperated side, 40 μg at E5-0 hr and E5-12 hours, mean ±SD

With “Acetyl-Tyr-Val-Ala-Asp-aldehyde [Ac-YVAD-CHO]” the survival promoting effect (following limb bud removal) was “no survival promoting effect”, the “Healthy Motoneurons (lumbar) on E6, Ipsilateral” value [1] was 11,109 ± 1592 and the “Pyknotic Motoneurons (lumbar) on E6, Ipsilateral” value [1] was 317 ± 89. For the same substance, the “Healthy Motoneurons (lumbar) on E6, Contralateral” value [2] was 17,914 ± 1733 and the “Pyknotic Motoneurons (lumbar) on E6, Contralateral” value [2] was 67 ± 13.
